From patent US20140357584A1 (priority 2011, published 2014)
Read-outs that look alike come from different tables or passages of the source. Values belong to the compound of their own block, whether it stands above or below them.

Legend:
[1] = system: HIV-1 strain Lav.04: T-Tropic; experiment: Human PBMC assay, p24 antigen ELISA, HIV1 clinical strain Lav.04; assay type: cell-based
Text: (§1) Anti-HIV Evaluation Using Four HIV1 Clinical Strains.
(§2) Four HIV1 clinical strains, BAL and SF162 (M-tropic), […], and 89.6 (a dual tropic strain), were used in the current study. Here a standardized human peripheral blood mononuclear cell culture (PBMC) assay was used to determine the compound susceptibility of these HIV-1 strains. AZT, an anti-HIV drug in clinical use, was used as a positive control. Briefly, human PBMCs were collected from a donor and stimulated for seven days. The preparations (compound or fraction) were then added to the cultured cells at a wide range of concentrations, and the different HIV-1 strains were used to challenge the cultured cells using 96-well plates. After seven-days of incubation, the supernatants were collected and the HIV p24 levels of the infected cells were determined using a p24 antigen ELISA. The ICsos were calculated by comparing p24 antigen values for the compounds (fraction)-containing wells with those for no drug control wells. In these experiments, AZT was used as positive controls.

[2] = system: HIV-1 strain 89.6: Dual-Tropic; experiment: Human PBMC assay, p24 antigen ELISA, HIV1 clinical strain 89.6; assay type: cell-based
Text: as §1, §2

[3] = system: HIV-1 strain SF162: M-Tropic; experiment: Human PBMC assay, p24 antigen ELISA, HIV1 clinical strain SF162; assay type: cell-based
Text: as §1, §2

four HIV-1 strains = experiment: Human PBMC assay, p24 antigen ELISA, summary over the four HIV-1 strains; assay type: cell-based; conditions: read-out: IC50, depending on the strains
Text: Justiprocumins B (2) and patentiflorin A (3) were further evaluated against a broad spectrum of HIV strains including four HIV1 clinical strains, BAL and SF162 (M-tropic), […], and 89.6 (a dual tropic strain). In these experiments, AZT was used as a positive control. […] It is clear that justiprocumin B (2) and patentification A (3), like AZT, could inhibit the particle production of all four HIV-1 strains effectively in a dose-dependent manner.
as §1, §2

[4] = system: HIV-1 strain Bal: M-Tropic; experiment: Human PBMC assay, p24 antigen ELISA, HIV1 clinical strain Bal; assay type: cell-based
Text: as §1, §2

HIV replication = experiment: Anti-HIV Post-Entry protocol (HIV/HA pseudovirions, luciferase reporter, A549 target cells); assay type: cell-based; conditions: for inhibition at 1 µg/mL: Human immunodeficiency virus 1, A549, read-out: inhibition of HIV replication
[5] = system: HIV reverse transcription; experiment: HIV gene expression of the R/U5 and U5/gag transcripts; assay type: cell-based
Hela cell line = experiment: Evaluation of toxicity (CellTiter 96), Hela; assay type: cell-based; conditions: at a concentration of 10 μg/mL
Experimental: (§3) Approximately 5000 cells seeded in a 96-well tissue culture plate in DMEM supplemented with FBS and penicillin/streptomycin. DMSO alone or compounds in 100% DMSO were added on the following day at appropriate concentrations and incubated with cells at 37° C. in 5% CO2 for 24 hr. After 24 hr, all media were removed and replaced with 100 μL fresh complete DMEM. After 48 hr post initial addition of DMSO or compound, 20 μL of CellTiter 96 Aqueous One Solution was added per well. After gentle mixing, plates were incubated at 37° C. in 5% CO2 for 4 hr. 25 μL of a 10% SDS solution was added per well and plates were stored at room temperature for approximately 12 hr. Absorbance was then measured at 450 nm using a plate reader.

A549 cell line = experiment: Evaluation of toxicity (CellTiter 96), A549; assay type: cell-based, human; conditions: at a concentration of 10 μg/mL
Experimental: as §3

[6] = Human immunodeficiency virus 1, PBMC, 168 h, read-out: IC50 Lav.04: T-Tropic, human PBMC, p24 antigen, seven days
[7] = Human immunodeficiency virus 1, PBMC, 168 h, read-out: IC50 89.6: Dual-Tropic, human PBMC, p24 antigen, seven days
[8] = Human immunodeficiency virus 1, PBMC, 168 h, read-out: IC50 SF162: M-Tropic, human PBMC, p24 antigen, seven days
[9] = Human immunodeficiency virus 1, PBMC
[10] = Human immunodeficiency virus 1, BAL, PBMC, 168 h, read-out: IC50 Bal: M-Tropic, human PBMC, p24 antigen, seven days

IC50 ([1]; Human immunodeficiency virus 1, PBMC, 168 h, human PBMC, p24 antigen, seven days, read-out: IC50 Lav.04: T-Tropic): 79 nM
IC50 ([2]; Human immunodeficiency virus 1, PBMC, 168 h, human PBMC, p24 antigen, seven days, read-out: IC50 89.6: Dual-Tropic): 95 nM
IC50 ([3]; Human immunodeficiency virus 1, PBMC, 168 h, human PBMC, p24 antigen, seven days, read-out: IC50 SF162: M-Tropic): 85 nM
IC50 (four HIV-1 strains; Human immunodeficiency virus 1, range over four HIV-1 strains, human PBMC): 77 to 95 nM
IC50 ([4]; Human immunodeficiency virus 1, BAL, PBMC, 168 h, human PBMC, p24 antigen, seven days, read-out: IC50 Bal: M-Tropic): 77 nM
SMILES: Cc1cn([C@H]2C[C@H](N=[N+]=[N-])[C@@H](CO)O2)c(=O)[nH]c1=O [AZT, zidovudine, reference compound]

SMILES: COc1cc2c(O[C@@H]3O[C@H](C)[C@@H](O[C@@H]4O[C@H](CO)[C@@H](O)[C@H](O)[C@H]4O)[C@H](OC(C)=O)[C@H]3O)c3c(c(-c4ccc5c(c4)OCO5)c2cc1OC)C(=O)OC3 [Justiprocumin A (1), 9-(1,3-benzodioxol-5-yl)-4-[(3-O-acetyl-6-deoxy-4-O-β-D-glucopyranosyl-β-D-glucopyranosyl)oxy]-6,7-dimethoxy-naphtho[2,3-c]furan-1(3H)-one]
inhibition at 1 µg/mL (HIV replication): > 100%

SMILES: COc1cc2c(O[C@@H]3O[C@H](C)[C@@H](O[C@@H]4O[C@H](CO)[C@@H](O)[C@H](O)[C@H]4O)[C@H](O)[C@H]3OC(C)=O)c3c(c(-c4ccc5c(c4)OCO5)c2cc1OC)C(=O)OC3 [Justiprocumin B (2), 9-(1,3-benzodioxol-5-yl)-4-[(2-O-acetyl-6-deoxy-4-O-β-D-glucopyranosyl-β-D-glucopyranosyl)oxy]-6,7-dimethoxy-naphtho[2,3-c]furan-1(3H)-one]
IC50 [1, 6]: 21 nM
inhibition at 1 µg/mL (HIV replication): > 100%
IC50 [2, 7]: 15 nM
IC50 [3, 8]: 14 nM
IC50 (four HIV-1 strains; [9]): 14 to 21 nM
IC50 [4, 10]: 15 nM

SMILES: COc1cc2c(OC3OC(C)C(O)C(O)C3O)c3c(c(-c4ccc5c(c4)OCO5)c2cc1OC)C(=O)OC3 (stereo not shown) [Patentiflorin A (3), patentiflorin A]
inhibition of HIV reverse transcription (R/U5 and U5/gag transcripts) [5]: effective inhibitor of HIV reverse transcription
IC50 [1, 6]: 24 nM
IC50 ([1]; read-out: IC50 Lav.04: T-Tropic, human PBMC, p24 antigen, seven days, listed as Synthetic patentiflorin A (3)): 32 nM
IC50 (HIV replication; Human immunodeficiency virus 1, A549, read-out: anti-HIV activity IC50): < 0.01 µg/mL
IC50 [2, 7]: 32 nM
IC50 ([2]; read-out: IC50 89.6: Dual-Tropic, human PBMC, p24 antigen, seven days, listed as Synthetic patentiflorin A (3)): 31 nM
IC50 [3, 8]: 37 nM
IC50 ([3]; read-out: IC50 SF162: M-Tropic, human PBMC, p24 antigen, seven days, listed as Synthetic patentiflorin A (3)): 30 nM
IC50 (four HIV-1 strains; [9]): 24 to 37 nM
cytotoxicity against Hela (Hela cell line): no apparent cytotoxicity
IC50 [4, 10]: 30 nM
IC50 ([4]; read-out: IC50 Bal: M-Tropic, human PBMC, p24 antigen, seven days, listed as Synthetic patentiflorin A (3)): 32 nM
cytotoxicity against A549 (A549 cell line): no apparent cytotoxicity
